{"source": "patent US20190309066A1", "about": "“COMBINATION THERAPY FOR THE TREATMENT OF SOLID AND HEMATOLOGICAL CANCERS” (Arch Oncology, Inc., priority 2017, published 2019)", "test_system": "RPMI-8226 tumors", "assay": "RPMI-8226 multiple myeloma xenograft in NSG mice", "type": "in vivo, mouse", "description": "The purpose of this experiment was to evaluate the efficacy of anti-CD47 antibodies as a single agent and in combination with the proteasome inhibitor Bortezomib in the tumor growth inhibition in vivo in a xenograft mouse model of multiple myeloma. RPMI-8226 human multiple myeloma cells (ATCC #CCL-155, Manassas, Va.) were maintained in RPMI-1640 (Lonza; Walkersville, Md.) supplemented with 10% Fetal Bovine Serum (FBS; Omega Scientific; Tarzana, Calif.) and 1% Penicillin/Streptomycin (Corning, Manassas, Va.) within a 5% CO2 atmosphere. Cultures were expanded in tissue culture flasks.\nFemale NSG (NOD-Cg-Prkdc^scidI12rg^tm1Wjl/SzJ) were obtained from Jackson Laboratory (Bar Harbor, Me.) at 5-6 weeks of age. Mice were acclimated prior to handling and housed in microisolator cages (Lab Products, Seaford, Del.) under specific pathogen-free conditions. Mice were fed Teklad Global Diet® 2920× irradiated laboratory animal diet (Envigo, Formerly Harlan; Indianapolis, Ind.) and provided autoclaved water ad libitum. All procedures were carried out under the institutional guidelines of Translational Drug Development Institutional Animal Care and Use Committee (Protocol #18105). Animals were identified using transponders.\nFemale NSG mice were inoculated subcutaneously in the right flank with 0.1 mL of a 30% RPMI/70% Matrigel™ (BD Biosciences; Bedford, Mass.) mixture containing a suspension of 1×10^7 RPMI-8226 tumor cells. Fifteen days following inoculation, mice were randomized Test articles human IgG2 (hIgG2), an anti-CD47 antibody, and Bortezomib (LC Labs, Woburn, Mass.) were administered by intravenous (IV) injection. hIgG2 and anti-CD47 mAb were dosed on Days 0, 7, 14, 21, 28, and 35, while Bortezomib was dosed on Days 1, 4, and 12. as described below in Table 12.\nMean tumor growth inhibition (TGI) was calculated for Day 48 (the final day all mice were on study) utilizing the following formula.\nThe mean TS of each group was calculated and reported.\nAll statistical analyses in the xenograft study were performed with Prism GraphPad® software. Differences in Day 48 tumor volumes were confirmed using a one-way ANOVA, unpaired, parametric with the Tukey's Multiple Comparison test with Welch's correction. A two-tailed Student's t-test with Welch's correction was also used to verify any differences between each group and the vehicle control.\nFor statistical analysis purpose, any mouse sacrificed as an long term survivor (LTS) was assigned a death day of Day 99.", "note": "“And” between values parts separate entries of the source, which are not always exact repeats. Equal entries are not always repeated."}
{"molecule": "CC(C)C[C@H](NC(=O)[C@H](Cc1ccccc1)NC(=O)c1cnccn1)B(O)O", "note": "[Bortezomib]", "values": [{"measurement": "Mean Day of Survival Days ± SEM", "setting": "Bortezomib 1 mg/kg", "value": "76.8 ± 1.6", "unit": "days"}, {"measurement": "Median Day of Survival (Min-Max)", "setting": "Bortezomib 1 mg/kg", "value": "78 (70-84) Days"}, {"measurement": "Day 48 Mean Tumor Volume (mm^3)", "setting": "Bortezomib 1 mg/kg IV", "value": "177 ± 20", "unit": "mm^3"}, {"measurement": "tumor shrinkage (in words)", "setting": "Bortezomib 1 mg/kg IV monotherapy", "value": "no tumor shrinkage was recorded"}, {"measurement": "Day 48 % TGI", "setting": "Bortezomib 1 mg/kg IV, vs hIgG2 control", "value": "96.2% and 96.2 (10) %"}, {"measurement": "Day 48 Outcome (ANOVA), tumor volume vs hIgG2 (Group 1)", "setting": "P value, Bortezomib 1 mg/kg", "value": "P < 0.05"}, {"measurement": "Day 48 Outcome (Student's t-test), tumor volume vs hIgG2 (Group 1)", "setting": "P value, Bortezomib 1 mg/kg", "value": "P < 0.05"}, {"measurement": "Survival Log-Rank Outcome vs hIgG2 (Group 1)", "setting": "P value, Bortezomib 1 mg/kg", "value": "P < 0.05"}]}
